Like-named read-outs stand apart in the source and are kept apart here.
How the values were obtained:
[1] = design: method as in PMID 24628035; details: cited from earlier work; for t ½ (terminal half‐life) / AUC (0–24 h) / C max / t max: fasting; for t ½ (terminal half‐life): arithmetic mean (CV%); for AUC (0–24 h) / C max: geometric mean (CV%); for C max: healthy White males
[2] = pH 7.4; cited from earlier work
[3] = TULIP Phase II trial, plasma concentrations of obicetrapib; format: in vivo, humans; details: any of the participants
[4] = ROSE2 Phase II trial, plasma concentrations of obicetrapib; format: in vivo, humans; details: for % Change in Plasma Level: Week 12 to Week 16, mean (SD); for concentration at 12 weeks / concentration at 16 weeks: both sexes, human, plasma, oral, read-out: Mean (SD) Plasma Level; for concentration at 12 weeks: Week 12 (EOT), on‐treatment PK population; for concentration at 16 weeks: Week 16, four weeks after the end of treatment
Protocol: The PK parameters and the effect of food on the bioavailability of obicetrapib in humans have been examined in both Phase I[9] (TA‐8995‐09 CSR, NewAmsterdam Pharma) and Phase II trials.[10], [11], [12], [13] The trials were performed in accordance with the Declaration of Helsinki, Good Clinical Practice Guidelines, and applicable regulatory requirements. Approval was obtained from the relevant ethical review boards for each site. All volunteers provided written informed consent prior to participation. PK parameters were determined using WinNonlin software, version 4.1 or higher (Pharsight/Certara Corporation, USA). Concentrations of obicetrapib were summarized for each treatment group using descriptive statistics.
ROSE2 (NCT05266586) was a placebo‐controlled, double‐blind, randomized trial conducted to evaluate the efficacy, safety, and tolerability of obicetrapib or obicetrapib plus ezetimibe as an adjunct to high‐intensity statin therapy.[12] An exploratory endpoint of the trial included assessing the plasma concentrations of obicetrapib during treatment and 4 weeks after the end of treatment. […] One hundred nineteen participants (mean age: 62.6 years; 63.9% male; 84.5% White; mean BMI: 30.9 kg/m^2) were enrolled at 18 clinical research sites in the United States and randomized in a 1:1:1 ratio to one of three treatment groups: (1) placebo; (2) obicetrapib monotherapy (one 10 mg obicetrapib tablet plus one placebo capsule for ezetimibe); or (3) combination therapy (one 10 mg obicetrapib tablet plus one 10 mg ezetimibe capsule). The participants were instructed to take their assigned treatment orally with water once daily at approximately the same time each morning for the 12‐week treatment period. After randomization, participants returned to the clinical research site during Weeks 4 and 12 (end of treatment) for safety and PK assessments. Participants also completed a follow‐up visit 4 weeks after the end of treatment (Week 16) for final safety and PK assessments. Of the 119 participants randomized, 97 (81.5%) were included in an on‐treatment analysis, which excluded participants with plasma concentrations of obicetrapib <100 ng/mL at either or both Week 4 and Week 12.[12] The on‐treatment PK population (n = 57) included all randomized participants in the mITT population assigned to the two obicetrapib dose groups who had sufficient blood samples collected for valid estimation of PK parameters and excluded participants with plasma concentrations of obicetrapib <100 ng/mL at either or both Week 4 and Week 12. Fifty‐six (98.2%) participants in the on‐treatment PK population were included in the 4‐week post‐end of treatment PK analysis (TA‐8995‐202 CSR, NewAmsterdam Pharma).

[5] = cited from earlier work
[6] = Obicetrapib 10 mg + ezetimibe 10 mg + high‐intensity statin
[7] = Obicetrapib 10 mg + high‐intensity statin

CCOC(=O)N1c2ccc(C(F)(F)F)cc2C(N(Cc2cc(C(F)(F)F)cc(C(F)(F)F)c2)c2ncc(OCCCC(=O)O)cn2)CC1CC (stereo not shown) [Obicetrapib]
effect of food on the AUC or C max ([1]; 50 mg dose, fed versus fasted, n = 5 White healthy males): did not have a clinically relevant effect | effects of food, age, gender, or ethnicity on the PK parameters ([1]; PK assessment results of the other groups): no clinically relevant effects | t ½ (terminal half‐life) ([1]; single dose 5 mg): 125 (22%) h | AUC (0–24 h) ([1]; single dose 5 mg): 1816 (34%) ng·h/mL | C max ([1]; single dose 5 mg): 138 (33%) ng/mL | t max ([1]; single dose 5 mg, median (minimum, maximum)): 3 (2, 3) h | t max ([1]; single dose 5 mg, median (minimum, maximum), listed as obicetrapib): ≤ 3 h | t ½ (terminal half‐life) ([1]; single dose 10 mg): 124 (20%) h | AUC (0–24 h) ([1]; single dose 10 mg): 3580 (21%) ng·h/mL | C max ([1]; single dose 10 mg): 251 (23%) ng/mL | t max ([1]; single dose 10 mg, median (minimum, maximum)): 3 (2, 5) h | t max ([1]; single dose 10 mg, median (minimum, maximum), listed as obicetrapib): ≤ 3 h | t ½ (terminal half‐life) ([1]; single dose 25 mg): 162 (19%) h | AUC (0–24 h) ([1]; single dose 25 mg): 5952 (26%) ng·h/mL | C max ([1]; single dose 25 mg): 467 (30%) ng/mL | t max ([1]; single dose 25 mg, median (minimum, maximum)): 3.5 (2, 6) h | t max ([1]; single doses 50–150 mg): 4 h | obicetrapib in urine ([1]; single doses, any participant): not detected | cLogDpH7.4 [2]: 4.9 | obicetrapib in urine [3]: not detected | % Change in Plasma Level [4, 6]: −92.2 (3.7) % | % Change in Plasma Level [4, 7]: −93.7 (3.3) % | % Change in Plasma Level ([4]; Obicetrapib 10 mg + high‐intensity statin, listed as obicetrapib): −93.7% | concentration at 12 weeks [4, 6]: 0.36 µg/mL | concentration at 16 weeks [4, 6]: 0.0287 µg/mL | concentration at 12 weeks [4, 7]: 0.387 µg/mL | concentration at 16 weeks [4, 7]: 0.0245 µg/mL | PSA [5]: 105 Å^2

From publication PMC11489133, “Obicetrapib exhibits favorable physiochemical and pharmacokinetic properties compared to previous cholesteryl ester transfer protein inhibitors: An integrated summary of results from non‐human primate studies and clinical trials” (Pharmacology Research & Perspectives, 2024)
